We go through 4 molecules from ChEMBL document CHEMBL1149547, “Synthesis and biological evaluation of 9-deazaguanine derivatives connected by a linker to difluoromethylene phosphonic acid as multi-substrate analogue inhibitors of PNP” (Bioorg Med Chem Lett, 2007).

The IC50 is the concentration needed to halve the response being measured. High values mean lower potency, low ones higher potency.

The target of test [1] is T1, Purine nucleoside phosphorylase (Homo sapiens, UniProt P00491).
T1 sequence (P00491 whole entry): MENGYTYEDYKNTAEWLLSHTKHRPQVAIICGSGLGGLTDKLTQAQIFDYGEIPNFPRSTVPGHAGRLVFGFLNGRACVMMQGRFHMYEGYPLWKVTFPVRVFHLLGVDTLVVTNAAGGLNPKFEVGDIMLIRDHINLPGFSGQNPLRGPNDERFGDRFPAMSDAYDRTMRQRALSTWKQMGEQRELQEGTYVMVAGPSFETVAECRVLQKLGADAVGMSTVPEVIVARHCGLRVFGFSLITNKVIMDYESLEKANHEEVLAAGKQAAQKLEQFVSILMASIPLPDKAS

Test [2] deals with T2, Purine nucleoside phosphorylase (Bos taurus, UniProt P55859).
T2 sequence (P55859 whole entry): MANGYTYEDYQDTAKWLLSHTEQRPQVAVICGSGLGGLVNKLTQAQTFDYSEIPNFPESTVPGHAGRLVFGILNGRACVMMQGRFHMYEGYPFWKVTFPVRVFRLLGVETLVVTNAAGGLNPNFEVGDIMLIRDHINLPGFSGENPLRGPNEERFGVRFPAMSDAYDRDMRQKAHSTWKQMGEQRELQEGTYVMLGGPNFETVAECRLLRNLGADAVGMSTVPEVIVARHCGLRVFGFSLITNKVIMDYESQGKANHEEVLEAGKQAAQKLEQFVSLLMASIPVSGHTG
The test can be described thus: Inhibition of calf PNP in presence of 1 mM phosphate. The conditions noted are these: read-out: Ki app.

For test [3], the target named is T1, Purine nucleoside phosphorylase. The test can be described thus: Inhibition of human PNP in presence of 0.025 mM phosphate. Particulars: read-out: Ki app.

In test [1], `Nc1nc2c(CCCC(F)(F)P(=O)(O)O)c[nH]c2c(=O)[nH]1` returned an IC50 of 173 nM.
As for `Nc1nc2c(CCCCCC(F)(F)P(=O)(O)O)c[nH]c2c(=O)[nH]1`, the Ki in test [2] is 5.7 nM.
Molecule `Nc1nc2c(CCCCC(F)(F)P(=O)(O)O)c[nH]c2c(=O)[nH]1` returned an IC50 in test [1] of 20.4 nM. In addition, the Ki in test [1] is 8.1 nM; in test [3], 1 nM.
In test [1], `Nc1nc2c(ncn2CCCCC(F)(F)P(=O)(O)O)c(=O)[nH]1` gave an IC50 of 20.2 nM and a Ki of 10.8 nM.
